Measurements taken from US20250352608A1, “POLYPEPTIDES HAVING ANTI-INFLAMMATORY EFFECTS AND USES THEREOF” (OneSkin, Inc., priority 2020, published 2025).
Entries after “also recorded” stand apart in the source; their conditions may differ. Ends that are not written are not given here.

Tests used:
[1] = tested on: Human primary fibroblasts isolated from 3 healthy chronologically aged (elder) donors; assay: 3-week exposure: senescence and proliferation; format: cell-based; details: 3.12 μM, days 7-28
Experimental: Human primary fibroblasts isolated from 3 healthy chronologically aged (elder) donors were used. These cells were cultured in DMEM (Dulbecco's Modified Eagle's Medium) supplemented with 10% v.v. fetal bovine serum (FBS), and 1% v.v. of penicillin/streptomycin solution (1,000 U·mL-1). Cells were kept in a 5% CO2, 37° C. and 95% humidity atmosphere. After expansion, these cells were seeded in T-75 flasks (250,000 cells per flask) and, 6 hours after plating, were incubated for 3 weeks (21 days) with Peptide 14 at 3.12 μM. A negative control comprised untreated cells, which received vehicle only. Day 0 was defined as the day cells started to be treated with Peptide 14. No Peptide 14 treatment was performed between days 21 and 28. Weekly, cellular senescence was assessed according to senescence associated β-galactosidase staining levels. Data was normalized to untreated group and plotted (FIG. 4, panel A). Cellular proliferation was also determined weekly. At days 7, 14, 21, and 28, cells were trypsinized and counted (FIG. 4, panel B). After counting, 250,000 cells were plated in new T-75 flasks. Three independent experiments (biological replicates) including three technical replicates were performed. Data was analyzed using T-test. Statistical significance was determined as p values equal or lower than 0.05.

[2] = tested on: human primary fibroblasts isolated from 3 healthy donors; assay: UVB-induced senescence; format: cell-based; details: 5 μM, 48 hours
Experimental: Cellular senescence may be caused by several different stimuli. In order to assess whether Peptide 14 was effective against UVB-induced and chemically-induced senescence, human primary fibroblasts isolated from 3 healthy donors were used. These cells were cultured in DMEM (Dulbecco's Modified Eagle's Medium) supplemented with 10% v.v. fetal bovine serum (FBS), and 1% v.v. of penicillin/streptomycin solution (1,000 U mL-1). Cells were kept in a 5% CO2, 37° C. and 95% humidity atmosphere. After expansion, these cells were seeded in 96-well plates (4,000 cells per well) and, 6 hours after plating, were submitted to either etoposide (20 μM) treatment for 24 hours, or exposed twice to 0.05 J/cm^2 of UVB radiation. […] After incubation, relative cellular senescence (assessed by the activity of senescence associated β-galactosidase staining relative to untreated control) was analyzed and plotted in column graphs. ATRX foci were also assessed following ATRX immunofluorescence staining. Graphs were built using the average ATRX foci detected per nuclei. […] Data was analyzed using with either t-test or ANOVA followed by a Bonferroni post-hoc test. Statistical significance was determined as p-values equal or lower than 0.05 (FIG. 6).

Caenorhabditis elegans = assay: C. elegans healthspan and lifespan; format: in vivo; details: at the concentrations tested (1 μM, 2 μM)
Experimental: Senotherapeutic strategies can be linked to healthspan and lifespan extension in vivo. In order to assess whether Peptide 14 promotes extended healthspan and lifespan, Caenorhabditis elegans worms were used. Peptide 14 was added in the worm media (M9 buffer media) at different concentrations of 1 μM or 2 μM. Negative control worms received vehicle only. Two healthspan parameters were assessed i) pharyngeal pumping and ii) worm movement. Lifespan was also determined. For pharyngeal pumping analysis, 15 worms had their pharynx movement (pumping) observed daily and counted for 20 seconds. This experiment was repeated 3 times, by 2 different blind observers, employing different populations of animals at different days. Statistical difference was detected by analyzing each individual time point by One-Way ANOVA and Dunnet's post hoc test. All groups were compared with the H2O group. For worm movement analysis, the basic movement of C. elegans, also called thrashing, was measured daily for 15 worms. […] Statistical difference was detected by analyzing each individual time point by One-Way ANOVA and Dunnet's post hoc, and all groups were compared with the H2O group. […] The average lifespan was measured. Statistical difference was detected by analyzing each individual time point by One-Way ANOVA and Dunnet's post hoc, and all groups were compared with the H2O group (FIG. 15).

[3] = tested on: peripheral blood mononuclear cells (PBMCs); assay: PBMC viability / toxicity (MTT); format: cell-based, human; details: 1.56 μM to 150 μM
Experimental: T cells may be involved in inflammation of various skin disorders. […] This study was approved by an IRB board. PBMCs were obtained from healthy volunteers. After isolation, the PBMCs were maintained in 96 wells and treated with different concentrations of Peptide 14 (1.56 μM to 150 μM) in order to assess toxicity of Peptide 14 to the PBMCs.
The viability and proliferation of PBMCs were analyzed by MTT assay. Briefly, after 5 days of treatment, the cells were incubated with […] MTT reagent for 4 hours. Then, 100 μL of DMSO was added into each well, and the absorbance was detected at 595 nm. Data was presented as percentage of proliferation/viability normalized to the negative control of untreated PBMCs (100% viability/proliferation).

U-937 macrophages = details: 3.12 μM, absence or presence of 0.5 μg/mL LPS
Description: In some cases, monocytes and macrophages may be involved in inflammation of various skin disorders. In order to assess the effect of Peptide 14 on inflammation, an in vitro model of inflammation using monocytes and macrophages was used to study the effect of direct culture of the Peptide 14 with such cells. Cells from the U-937 cell line (Banco de Células do Rio de Janeiro—BCRJ cat. 0242) were used for experiments. According to BCRJ, the U-937 cell line was derived by Sundstrom and Nilsson in 1974 from malignant cells obtained from the pleural effusion of a patient with histiocytic lymphoma. Also, studies since 1979 have shown that U-937 cells can be induced to terminal monocytic differentiation by supernatants from human mixed lymphocyte cultures or phorbol myristic acid (PMA) stimulation.

pAkt S473 = assay: Akt S473 phosphorylation western blot in skin equivalents; format: cell-based, human; details: 1p M, 5 days
Experimental: (§1) In order to shed light into the mechanism of action of Peptide 14 and similar Peptide 13, Akt S473 phosphorylation (FIG. 8, panel A), senescence associated β-galactosidase staining (FIG. 8, panel B), as well as mRNA expression (FIG. 8, panel C) were investigated. For Akt S473 phosphorylation analysis using western blotting, human primary fibroblasts and keratinocytes were used. These cells were used to build human skin equivalents, which were kept in a 5% CO2, 37° C. and 95% humidity atmosphere air liquid interface. Then, skin equivalents were treated with 1p M of either Peptide 14 or Peptide 13 for 5 days, and protein analysis was performed on the skin equivalents. Protein was isolated and quantified. Equal amounts of protein were loaded in polyacrylamide gels and transferred into a nitrocellulose membrane. […] Relative pAkt S473/GAPDH signal was compared between treated and non-treated samples. For senescence associated B-galactosidase staining experiments, fibroblasts were used. […] Total RNA was isolated, samples were reverse transcribed, and mRNA expression of GAPDH, sirtuin 6 (SIRT6), BLM, and exonuclease 1 (EXO1) genes were determined using qPCR. […] CT values were analyzed using the 2^−ΔΔCt method. […] Data was analyzed using a T-test. Statistical significance was determined as p values equal or lower than 0.05 (FIG. 8).

fibroblasts = assay: SA B-galactosidase staining after UVB (Example 8); format: cell-based, human; details: 48 hours after 2 x 0.05 J/cm^2
Experimental: as §1

[4] = tested on: human skin equivalents (donors); assay: Histology score of human skin equivalents (Example 16); format: cell-based; details: 0.01% w/v (or 1 μM), 5 days; control 21.00
Experimental: To test the effect of Peptide 13 and Peptide 14 treatment on human skin models and the skin morphology, human primary fibroblasts and keratinocytes isolated from healthy elder donors were used to build human skin equivalents. The skin equivalents were treated with 0.01% w/v (or 1 μM) of Peptide 13 or Peptide 14 for 5 days. The negative controls were treated with formulation only. After the 5-day culture, the skin equivalents were analyzed for epidermal thickness, which was quantified according to total epidermal area. Quality assessment based several parameters was performed by blind analysts. […] A minimal score of 19 was required for batch use. This score was validated internally and shown to decrease with age/senescence of the skin equivalents or cultured cells. Three independent experiments were performed with three technical replicates. Data were analyzed using a t-test. Statistical significance was determined as p-values equal or lower than 0.05. The statistically significant p-values are noted by * for p<0.05; ** for p<0.01; *** for p<0.001; **** for p<0.0001 between the groups.

[5] = tested on: 3D skin equivalent (elder donors); assay: Relative mRNA expression in 3D skin equivalents versus Retinoic Acid; format: cell-based, human; details: 1p M peptide vs 20 μM Retinoic Acid
Experimental: 3D skin equivalent sections of samples built with cells from elder donors ([…]) were treated with 1p M Peptide 14 or Peptide 13, or 20 μM Retinoic Acid (RA) and assessed for the effect of the various treatments of various markers of senescence, aging, and health.
Data are presented as 2-ddCt normalized to GAPDH and untreated control. *p<0.05. Peptide 13 and Peptide 14-treated samples generally had similar relative mRNA expression levels for p16, BLIMP1, ZYG11B, IL-8, and Ki-67 in the epidermal layer, and for p16, MMP1, HAS2, IL-8, and Ki-67 in the dermal layer. Peptide 13 and Peptide 14-treated samples generally had lower relative mRNA expression levels than RA-treated samples for p16, BLIMP1, ZYG11B, IL-8, in the epidermal layer and for p16, MMP1, IL-8, and Ki-67 in the dermal layer. Peptide 13 and Peptide 14-treated samples generally had higher relative mRNA expression levels than RA-treated samples for Ki-67 in the epidermal layer and for HAS2 for the dermal layer. Peptide 13 and Peptide 14-treated samples had similar relative mRNA expression levels as RA-treated samples for ZIC1 and Ki-67 for dermal layer.

## ETAKHWLKGI [Peptide 14, ETAKHWLKGI]
[1]
  cell proliferation vs untreated control: No significant differences
[2]
  cell number after UVB: did not significantly alter cell number
Caenorhabditis elegans
  toxicity to C. elegans (worm movement): not toxic
[3]
  cell toxicity to PBMCs: nor any detectable cell toxicity
  cell viability vs untreated control PBMCs: did not result in lower cell viabilities
U-937 macrophages
  cell toxicity to U-937 macrophages: nor any detectable cell toxicity
  cell viability vs untreated control U-937 macrophages: did not result in lower cell viabilities

## ATAKAWLKGI [Peptide 13]
pAkt S473
  pAkt S473, dermal samples: decreased
fibroblasts
  SA B-galactosidase staining in UVB-exposed samples: decreased staining
[4]
  mean of histology scores (maximum 28): 23.44
[5]
  relative mRNA BLIMP1, epidermal layer, vs RA-treated samples: lower
  relative mRNA HAS2, dermal layer, vs RA-treated samples: higher
  relative mRNA IL-8, dermal layer, vs RA-treated samples: lower
  relative mRNA IL-8, epidermal layer, vs RA-treated samples: lower
  relative mRNA Ki-67, dermal layer, vs RA-treated samples: lower; also recorded: similar
  relative mRNA Ki-67, epidermal layer, vs RA-treated samples: higher
  relative mRNA MMP1, dermal layer, vs RA-treated samples: lower
  relative mRNA ZIC1 vs RA-treated samples: similar
  relative mRNA ZYG11B, epidermal layer, vs RA-treated samples: lower
  relative mRNA p16, dermal layer, vs RA-treated samples: lower
  relative mRNA p16, epidermal layer, vs RA-treated samples: lower
